pIC50: −log10 of the molar value. Numbered stars: 1 amine (or outer) side, 2 acyl side, 3 side chain; on linkers, the order of the positions; unused ones are H or OH. Bridge positions count the residues as written; N and C are the ends. Square brackets hold non-standard residues; d marks the D form. Peptide text beside a SMILES is read from it. * marks the point of attachment. X1 = CC[C@H](C)[C@@H](N[*:1])[C@@H](O)CC(=O)O[C@H](C(=O)[C@H](C)C(=O)[*:2])C(C)C; X3 = CC[C@H](C)[C@H](N[*:1])[C@@H](O)CC(=O)O[C@H](C(=O)[C@H](C)C(=O)[*:2])C(C)C; X7 = CCC(C)C(N[*:1])C(O)CC(=O)OC(C(=O)C(C)C(=O)[*:2])C(C)C; NMeY = CN[CH](Cc1ccc(O)cc1)C(=O)O; Stearoyl = CCCCCCCCCCCCCCCCCC(=O)*; aThr = C[C@H](O)[C@H](N)C(=O)O; NMeL = CN[CH](CC(C)C)C(=O)O; dNMeL = CN[C@H](CC(C)C)C(=O)O; Lauroyl = CCCCCCCCCCCC(=O)*; Octanoyl = CCCCCCCC(=O)*; Hexanoyl = CCCCCC(=O)*; Pentanoyl = CCCCC(=O)*; Propionyl = CCC(=O)*; Butyryl = CCCC(=O)*; For = O=C*
Columns and labels:
[1] = test system: murine splenocytes (Balb/c and C57B1/6); assay: Two-way mixed lymphocyte reaction (MLR) assay; conditions: Balb/c + C57B1/6 splenocytes, 96 h, [3H]thymidine; for pIC50: read-out: two-way mixed lymphocyte reaction (MLR) suppression MLR, IC50;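 on all read-outs here: proliferation read as tritiated thymidine incorporation into newly made DNA after an overnight pulse, expressed as percent of control activity, IC50 interpolated per compound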
[2] = test system: Balb/c splenocytes (resting lymphocytes); assay: Lymphocyte viability (LcV) assay; format: cell-based, murine; conditions: unstimulated Balb/c splenocytes, MTT
Procedure: Forty two (42) didemnin compounds (see Table 1) were evaluated for cytotoxicity to one of the lymphocyte populations in the MLR (i.e., Balb/c splenocytes). The purpose of the lymphocyte viability assay (LcV) is to measure metabolic activity in lymphocytes after they have been exposed to the compounds for the duration of an under conditions equivalent to the MLR. The inverse of the data yields cytotoxicity information about the compounds on murine lymphocytes. The rationale of using resting cells, in this case unstimulated lymphocytes, to measure cytotoxicity has a strategic importance. In the MLR the heterogenous cell populations are predominantly resting cells when the assay begins.
Test compounds were prepared in two sets as described above. Splenocytes were prepared as described previously from one murine strain (Balb/c), and a volume of 200 μL of the cell suspension was added to one set of test compounds and control wells.
Assay plates were incubated as in the MLR and then pulsed overnight 75 μL per well MTT-thiazolyl blue solution (150 μg). The plates were decanted and the resulting insoluble formazan crystals were dissolved in 200 μL of isopropyl alcohol. Absorbance at 570 nm was measured.
The LcV data were calculated as a percentage of basal metabolic activity, or percent viability, relative to BALB/c control, and an LC50 value was interpolated for each test compound.

[3] = test system: concanavalin A-induced lymphoblasts (Con A splenocytes); assay: Lymphoblast viability (LbV) assay; conditions: Con A-stimulated splenocytes (lymphoblasts), MTT

| Compound | two-way mixed lymphocyte reaction (MLR) suppression MLR, IC50 [1] [ng/mL] | pIC50 [1] | cytoxicity to lymphocytes LcV, LC50 [2] [nM] | cytoxicity to lymphocytes LcV, LC50 ([2]; highest concentration 10 μg/mL) [µg/mL] | cytotoxicity to lymphocytes LbV, LC50 [3] [nM] |
| --- | --- | --- | --- | --- | --- |
| CC[C@H](C)[C@H]1NC(=O)[C@@H](NC(=O)[C@@H](CC(C)C)N(C)C(=O)[C@@H]2CCCN2C(=O)[C@H](C)O)[C@@H](C)OC(=O)[C@H](CC2CCCCC2)N(C)C(=O)[C@@H]2CCCN2C(=O)[C@H](CC(C)C)NC(=O)[C@@H](C)C(=O)[C@H](C(C)C)OC(=O)C[C@@H]1O [Compound 16, [H6 -N-MePhe^6]Didemnin B] | 0.57 | 9.28 | > 9200 | > 10 | 0.73 |
| CC[C@H](C)[C@@H](NC(=O)[C@@H](NC(=O)[C@@H](CC(C)C)NC)[C@@H](C)O)[C@@H](O)CC(=O)O[C@H](C(=O)[C@H](C)C(=O)N[C@@H](CC(C)C)C(=O)N1CCC[C@H]1C(=O)N(C)[C@@H](Cc1ccc(OC)cc1)C(=O)O)C(C)C [Compound 17, Acyclodidemnin A] (H-[dNMeL]T[X1]LP[NMeY](Me)-OH) | 0.54 | 9.24 | > 10400 | > 10 | 240 |
| CC[C@H](C)[C@H]1NC(=O)[C@@H](NC(=O)[C@@H](CC(C)C)N(C)C(C)=O)[C@@H](C)OC(=O)[C@H](Cc2ccc(OC)cc2)N(C)C(=O)[C@@H]2CCCN2C(=O)[C@H](CC(C)C)NC(=O)[C@@H](C)C(=O)[C@H](C(C)C)OC(=O)C[C@@H]1O [Compound 18, N^α -Acetyldidemnin A] (Ac-[dNMeL]T[X1]LP[NMeY](Me); ester 2-C) | 0.027 | 10.57 | > 10000 | > 10 | 0.39 |
| CCC(=O)N(C)[C@H](CC(C)C)C(=O)N[C@@H]1C(=O)N[C@H]([C@@H](C)CC)[C@@H](O)CC(=O)O[C@@H](C(C)C)C(=O)[C@H](C)C(=O)N[C@@H](CC(C)C)C(=O)N2CCC[C@H]2C(=O)N(C)[C@@H](Cc2ccc(OC)cc2)C(=O)O[C@@H]1C [Compound 19, N^α -Propionyldidemnin A] (Propionyl-[dNMeL]T[X1]LP[NMeY](Me); ester 2-C) | 0.37 | 9.43 | 6500 | 6.50 | 0.068 |
| CCCC(=O)N(C)C(CC(C)C)C(=O)NC1C(=O)NC(C(C)CC)C(O)CC(=O)OC(C(C)C)C(=O)C(C)C(=O)NC(CC(C)C)C(=O)N2CCCC2C(=O)N(C)C(Cc2ccc(OC)cc2)C(=O)OC1C (stereo not drawn) [Compound 20, N^α -n-Butyryldidemnin A] (Butyryl-[NMeL]T[X7]LP[NMeY](Me); ester 2-C; configuration not given here) | 0.30 | 9.52 | 99 | – | 0.074 |
| CCCCC(=O)N(C)[C@H](CC(C)C)C(=O)N[C@@H]1C(=O)N[C@H]([C@@H](C)CC)[C@@H](O)CC(=O)O[C@@H](C(C)C)C(=O)[C@H](C)C(=O)N[C@@H](CC(C)C)C(=O)N2CCC[C@H]2C(=O)N(C)[C@@H](Cc2ccc(OC)cc2)C(=O)O[C@@H]1C [Compound 21, N^α -Pentanoyldidemnin A] (Pentanoyl-[dNMeL]T[X1]LP[NMeY](Me); ester 2-C) | 0.48 | 9.32 | 9700 | > 10 | 0.059 |
| CCCCCC(=O)N(C)[C@H](CC(C)C)C(=O)N[C@@H]1C(=O)N[C@H]([C@@H](C)CC)[C@@H](O)CC(=O)O[C@@H](C(C)C)C(=O)[C@H](C)C(=O)N[C@@H](CC(C)C)C(=O)N2CCC[C@H]2C(=O)N(C)[C@@H](Cc2ccc(OC)cc2)C(=O)O[C@@H]1C [Compound 22, N^α -Hexanoyldidemnin A] (Hexanoyl-[dNMeL]T[X1]LP[NMeY](Me); ester 2-C) | 0.022 | 10.68 | 9600 | > 10 | 0.11 |
| CCCCCCCC(=O)N(C)[C@H](CC(C)C)C(=O)N[C@@H]1C(=O)N[C@H]([C@@H](C)CC)[C@@H](O)CC(=O)O[C@@H](C(C)C)C(=O)[C@H](C)C(=O)N[C@@H](CC(C)C)C(=O)N2CCC[C@H]2C(=O)N(C)[C@@H](Cc2ccc(OC)cc2)C(=O)O[C@@H]1C [Compound 23, N^α -Octanoyldidemnin A] (Octanoyl-[dNMeL]T[X1]LP[NMeY](Me); ester 2-C) | 5.50 | 8.29 | > 9350 | > 10 | 21 |
| CCCCCCCCCCCC(=O)N(C)[C@H](CC(C)C)C(=O)N[C@@H]1C(=O)N[C@H]([C@@H](C)CC)[C@@H](O)CC(=O)O[C@@H](C(C)C)C(=O)[C@H](C)C(=O)N[C@@H](CC(C)C)C(=O)N2CCC[C@H]2C(=O)N(C)[C@@H](Cc2ccc(OC)cc2)C(=O)O[C@@H]1C [Compound 24, N^α -Dodecanoyldidemnin A] (Lauroyl-[dNMeL]T[X1]LP[NMeY](Me); ester 2-C) | 119 | 6.97 | > 8900 | > 10 | 160 |
| CCCCCCCCCCCCCCCCCC(=O)N(C)[C@H](CC(C)C)C(=O)N[C@@H]1C(=O)N[C@H]([C@@H](C)CC)[C@@H](O)CC(=O)O[C@@H](C(C)C)C(=O)[C@H](C)C(=O)N[C@@H](CC(C)C)C(=O)N2CCC[C@H]2C(=O)N(C)[C@@H](Cc2ccc(OC)cc2)C(=O)O[C@@H]1C [Compound 25, N^α -Octadecanoyldidemnin A] (Stearoyl-[dNMeL]T[X1]LP[NMeY](Me); ester 2-C) | 6040 | 5.29 | > 8500 | > 10 | 2700 |
| CC[C@H](C)[C@@H]1NC(=O)[C@@H](NC(=O)[C@H](CC(C)C)N(C)C=O)[C@H](C)OC(=O)[C@H](Cc2ccc(OC)cc2)N(C)C(=O)[C@@H]2CCCN2C(=O)[C@H](CC(C)C)NC(=O)[C@@H](C)C(=O)[C@H](C(C)C)OC(=O)C[C@@H]1O [Compound 26, Didemnin G] (For-[NMeL][aThr][X3]LP[NMeY](Me); ester 2-C) | 0.70 | 9.14 | > 10000 | > 10 | 1.1 |
| CC[C@H](C)[C@H]1NC(=O)[C@@H](NC(=O)[C@@H](CC(C)C)N(C)C(=O)[C@@H](N)CC(C)C)[C@@H](C)OC(=O)[C@H](Cc2ccc(OC)cc2)N(C)C(=O)[C@@H]2CCCN2C(=O)[C@H](CC(C)C)NC(=O)[C@@H](C)C(=O)[C@H](C(C)C)OC(=O)C[C@@H]1O [Compound 27, N-(L-Leu)Didemnin A] (H-L[dNMeL]T[X1]LP[NMeY](Me); ester 3-C) | 0.78 | 9.13 | > 9500 | > 10 | 3.8 |
| CC[C@H](C)[C@H]1NC(=O)[C@@H](NC(=O)[C@@H](CC(C)C)N(C)C(=O)[C@@H]2CCCN2)[C@@H](C)OC(=O)[C@H](Cc2ccc(OC)cc2)N(C)C(=O)[C@@H]2CCCN2C(=O)[C@H](CC(C)C)NC(=O)[C@@H](C)C(=O)[C@H](C(C)C)OC(=O)C[C@@H]1O [Compound 28, N^α -(L-Pro)Didemnin A] (H-P[dNMeL]T[X1]LP[NMeY](Me); ester 3-C) | 1.00 | 9.02 | > 9600 | > 10 | 5.1 |
| CC[C@H](C)[C@H]1NC(=O)[C@@H](NC(=O)[C@@H](CC(C)C)N(C)C(=O)[C@H]2CCCN2)[C@@H](C)OC(=O)[C@H](Cc2ccc(OC)cc2)N(C)C(=O)[C@@H]2CCCN2C(=O)[C@H](CC(C)C)NC(=O)[C@@H](C)C(=O)[C@H](C(C)C)OC(=O)C[C@@H]1O [Compound 29, N^α -(D-Pro)-Didemnin A] (H-[dP][dNMeL]T[X1]LP[NMeY](Me); ester 3-C) | 12.2 | 7.93 | > 9600 | > 10 | 22 |
